{"source": "the supplement of paper PMC10307832", "assay_in_all_cases": "relative viability (nuclei count vs DMSO), 5 days (fraction); higher = more cells survive", "key": {"[1]": {"compound": "C1=CC(=CC=C1NC(=S)NNC2=C(C=C(C=C2[N+](=O)[O-])C(F)(F)F)[N+](=O)[O-])F [Kobe2602] + CC(=O)c1c(C)c2cnc(Nc3ccc(N4CCNCC4)cn3)nc2n(C2CCCC2)c1=O [Palbociclib] (partner 0.5 µM)", "how_it_was_run": "(§1)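 Relative viability was taken as the ratio of nuclei in treated wells to nuclei in vehicle wells. Lung cancer cell lines in 1536-well plates received compounds by pin tool one day after seeding, either one drug alone or a fixed anchor-drug dose plus five library-drug doses (not always all listed) in √10 steps. Nuclei were counted on 4× images after 5 days of treatment, and values are medians of duplicate plates.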"}, "[2]": {"compound": "C1=CC(=CC=C1NC(=S)NNC2=C(C=C(C=C2[N+](=O)[O-])C(F)(F)F)[N+](=O)[O-])F [Kobe2602] + CC(C)C[C@H](NC(=O)[C@H](Cc1ccccc1)NC(=O)c1cnccn1)B(O)O [Bortezomib] (partner 0.002 µM)", "how_it_was_run": "as §1"}, "[3]": {"compound": "C1=CC(=CC=C1NC(=S)NNC2=C(C=C(C=C2[N+](=O)[O-])C(F)(F)F)[N+](=O)[O-])F [Kobe2602] + Cc1nc(Nc2ncc(C(=O)Nc3c(C)cccc3Cl)s2)cc(N2CCN(CCO)CC2)n1 [Dasatinib] (partner 0.075 µM)", "how_it_was_run": "as §1"}, "[4]": {"compound": "O[C@@H](COc1cccc2ncccc12)CN1CCN([C@@H]2c3ccccc3[C@@H]3[C@H](c4ccccc42)C3(F)F)CC1 [Zosuquidar] + N=C(N)NC(=N)NCCc1ccccc1 [Phenformin] (partner 250 µM)", "how_it_was_run": "as §1"}}}
{"cell line": "UMC-11", "values": [{"measurement": "relative viability", "setting": "[1]; first compound 0.2 µM", "value": 0.356}, {"measurement": "relative viability", "setting": "[1]; first compound 0.6325 µM", "value": 0.331}, {"measurement": "relative viability", "setting": "[1]; first compound 2 µM", "value": 0.347}, {"measurement": "relative viability", "setting": "[1]; first compound 6.325 µM", "value": 0.343}, {"measurement": "relative viability", "setting": "[1]; first compound 20 µM", "value": 0.345}, {"measurement": "relative viability", "setting": "[2]; first compound 0.2 µM", "value": 0.779}, {"measurement": "relative viability", "setting": "[2]; first compound 0.6325 µM", "value": 0.819}, {"measurement": "relative viability", "setting": "[2]; first compound 2 µM", "value": 0.795}, {"measurement": "relative viability", "setting": "[2]; first compound 6.325 µM", "value": 0.628}, {"measurement": "relative viability", "setting": "[2]; first compound 20 µM", "value": 0.645}, {"measurement": "relative viability", "setting": "[3]; first compound 0.2 µM", "value": 0.49}, {"measurement": "relative viability", "setting": "[3]; first compound 0.6325 µM", "value": 0.449}, {"measurement": "relative viability", "setting": "[3]; first compound 2 µM", "value": 0.449}, {"measurement": "relative viability", "setting": "[3]; first compound 6.325 µM", "value": 0.451}, {"measurement": "relative viability", "setting": "[3]; first compound 20 µM", "value": 0.452}, {"measurement": "relative viability", "setting": "[4]; first compound 0.01 µM", "value": 0.32}, {"measurement": "relative viability", "setting": "[4]; first compound 0.03162 µM", "value": 0.331}, {"measurement": "relative viability", "setting": "[4]; first compound 0.1 µM", "value": 0.441}, {"measurement": "relative viability", "setting": "[4]; first compound 0.3162 µM", "value": 0.386}, {"measurement": "relative viability", "setting": "[4]; first compound 1 µM", "value": 0.324}]}
